Holding throughout (type): cell-based
For one assay, the system named is SW-13 cells. Put plainly: Cancer cell proliferation inhibition (Cell Counting Kit-8), adrenal cancer cell line. The note with it: 1000 nM, cultured seven to 11 days; for inhibition at 1 µM: Homo sapiens, SW13, 264 h, read-out: % inhibition rate SW-13. On the procedure:
(§1) In addition, as one example of solid cancer in which an overexpression of EZH2 and a consequent disease association therebetween is reported, a proliferation inhibitory activity of the 1,3-benzodioxole derivative compounds represented by chemical formula I of the present invention was evaluated in Lovo cells as a colorectal cancer cell line, SW-13 cells as an adrenal cancer cell line, MIA-PaCa-2 cells as a pancreatic cancer cell line, and NCI-H1299 cells as a lung cancer cell line.
(§2) Each cell line (G401 cell, MKN-45 cell, Lovo cell, SW-13 cell, MIA-PaCa-2, NCI-H1299) of Table 2 below was cultured using RPMI1640, McCoy's 5a, L-15 or DMEM containing 10% fetal bovine serum, and the cells were seeded into wells of a 96-well culture dish at 100 to 1,000 cells each, and a test substance 1000 nM was cultured for seven to 11 days after drug treatment. After the culture, the cells were measured according to a manufacturer's instructions using Cell Counting Kit-8, and a cell proliferation inhibitory effect (% inhibition rate) of the test substance was obtained.
(§3) The cell proliferation inhibitory effect (% inhibition rate) of the test substance was calculated using a following equation. % inhibition rate = {1−(testgroup/controlgroup)} X 100 [formula]
On the technique in general: Formazan colour is commonly taken as a measure of viable cells.

The subject of another assay is MKN-45 cells. The experiment in a line: Cancer cell proliferation inhibition (Cell Counting Kit-8), gastric cancer cell line. Conditions: 1000 nM, cultured seven to 11 days; for inhibition at 1 µM: Homo sapiens, MKN-45, 264 h, read-out: % inhibition rate MKN -45.
Excerpt: (§4) Among solid cancer cells, in G401 cells in which expression of SMARCB1, which is a member of switch/sucrosenon-fermenting (SWI/SNF), is defective as a cell line of a rhabdoid tumor in which a therapeutic effect may be expected through dual inhibition of EZH1/2, and MKN-45 cells in which expression of ARID1A, which is a member of SWI/SNF, is defective as a gastric cancer cell line, a proliferation inhibitory ability of the 1,3-benzodioxole derivative compounds represented by chemical formula I of the present invention was evaluated.
as §2, §3

The next assay concerns NCI-H1299 cells. The experiment in a line: Cancer cell proliferation inhibition (Cell Counting Kit-8), lung cancer cell line. The note with it: 1000 nM, cultured seven to 11 days; for inhibition at 1 µM: Homo sapiens, NCI-H1299, 264 h, read-out: % inhibition rate NCI-H129 9. As to the method:
as §1, §2, §3

The subject of another assay is Lovo cells. Put plainly: Cancer cell proliferation inhibition (Cell Counting Kit-8), colorectal cancer cell line. Conditions: 1000 nM, cultured seven to 11 days; for inhibition at 1 µM: Homo sapiens, LoVo, 264 h, read-out: % inhibition rate LoVo. On the procedure: as §1, §2, §3
For another assay, the system named is G401 cells. The experiment in a line: Cancer cell proliferation inhibition (Cell Counting Kit-8), rhabdoid tumor cell line. Conditions: 1000 nM, cultured seven to 11 days; for % inhibition rate G401: 1 µM; for inhibition at 1 µM: Homo sapiens, G-401, 264 h, read-out: % inhibition rate G401.
Excerpt: as §4, §2, §3

A further assay concerns MIA-PaCa-2 cells. Put plainly: Cancer cell proliferation inhibition (Cell Counting Kit-8), pancreatic cancer cell line. Conditions: 1000 nM, cultured seven to 11 days; for inhibition at 1 µM: Homo sapiens, MIA PaCa-2, 264 h, read-out: % inhibition rate MIA-Paca2. As to the method: as §1, §2, §3

The structures appear in SMILES notation.

With `CSc1cc(C)[nH]c(=O)c1CNC(=O)c1cc(-c2cnc(N3CCOCC3)nc2)c2c(c1C)OC(C)(C1CCN(CC(F)(F)F)CC1)O2` (single isomer, unassigned) [Compound 70, 2,4-dimethyl-N-((6-methyl-4-(methylthio)-2-oxo-1,2-dihydropyridin-3-yl)methyl)-7-(2-morpholinopyrimidine-5-yl)-2-(1-(2,2,2-trifluoro)piperidin-4-yl)benzo[d][1,3]dioxole-5-carboxamide], the “% inhibition rate SW-13” value with SW-13 cells (1 µM) is reported as “+ (+: ≤30%)”. In the assay with MKN-45 cells, the “% inhibition rate MKN -45” value was “++ (++: more than 30% and less than 70%)”. For the same molecule, in the assay with NCI-H1299 cells, the “% inhibition rate NCI-H129 9” value is reported as “+ (+: ≤30%)”. The “% inhibition rate LoVo” value in the assay on Lovo cells is given as “+++ (+++: ≥70%)”. Further, the “% inhibition rate G401” value in the assay with G401 cells was “+ (+: ≤30%)”. The “% inhibition rate MIA-Paca2” value in the assay on MIA-PaCa-2 cells is “+ (+: ≤30%)”.
Consider `CSc1cc(C)[nH]c(=O)c1CNC(=O)c1cc(-c2cnc(N3CCOCC3)nc2)c2c(c1C)OC(C)(C1CCN(CC(F)F)CC1)O2` (single isomer, unassigned) [Compound 72, 2-(1-(2,2-difluoroethyl)piperidin-4-yl)-2,4-dimethyl-N-((6-methyl-4-(methylthio)-2-oxo-1,2-dihydropyridin-3-yl)methyl)-7-(2-morpholinopyrimidin-5-yl)benzo[d][1,3]dioxole-5-carboxamide], for which the “% inhibition rate SW-13” value in the assay with SW-13 cells was “++ (++: more than 30% and less than 70%)”. Moreover, in the assay on MKN-45 cells, the “% inhibition rate MKN -45” value is “++ (++: more than 30% and less than 70%)”. In addition, in the assay on NCI-H1299 cells (1 µM), the “% inhibition rate NCI-H129 9” value is recorded as “+ (+: ≤30%)”. In the assay with Lovo cells, the “% inhibition rate LoVo” value is on record as “+++ (+++: ≥70%)”. Further, the “% inhibition rate G401” value in the assay on G401 cells is given as “+ (+: ≤30%)”. In addition, in the assay on MIA-PaCa-2 cells, the “% inhibition rate MIA-Paca2” value is recorded as “+ (+: ≤30%)”.
Consider `CCN1CCC(C2(C)Oc3c(-c4cnc(N5CCOCC5)nc4)cc(C(=O)NCc4c(SC)cc(C)[nH]c4=O)c(C)c3O2)CC1` (single isomer, unassigned) [Compound 74, 2-(1-ethylpiperidin-4-yl)-2,4-dimethyl-N-((6-methyl-4-(methylthio)-2-oxo-1,2-dihydropyridin-3-yl)methyl)-7-(2-morpholinopyrimidin-5-yl)benzo[d][1,3]dioxole-5-carboxamide], for which, in the assay on SW-13 cells (1 µM), the “% inhibition rate SW-13” value is recorded as “+ (+: ≤30%)”. In the assay with MKN-45 cells (1 µM), the “% inhibition rate MKN -45” value was “+ (+: ≤30%)”. Also, the “% inhibition rate NCI-H129 9” value with NCI-H1299 cells was “+ (+: ≤30%)”. Moreover, the “% inhibition rate LoVo” value in the assay on Lovo cells is “++ (++: more than 30% and less than 70%)”. For the same molecule, the “% inhibition rate G401” value with G401 cells is listed as “+ (+: ≤30%)”. In addition, the “% inhibition rate MIA-Paca2” value with MIA-PaCa-2 cells is “+ (+: ≤30%)”.
`CCN1CCN(c2ncc(-c3cc(C(=O)NCc4c(SC)cc(C)[nH]c4=O)c(C)c4c3OC(C)(C3CCN(CC(F)(F)F)CC3)O4)cn2)CC1` (single isomer, unassigned) [Compound 77, 7-(2-(4-ethylpiperazin-1-yl)pyrimidin-5-yl)-2,4-dimethyl-N-((6-methyl-4-(methylthio)-2-oxo-1,2-dihydropyridin-3-yl)methyl)-2-(1-(2,2,2-trifluoroethyl)piperidin-4-yl)benzo[d][1,3]dioxole-5-carboxamide]: in the assay with SW-13 cells (1 µM), the “% inhibition rate SW-13” value is given as “+ (+: ≤30%)”. In addition, the “% inhibition rate MKN -45” value in the assay on MKN-45 cells (1 µM) is reported as “+ (+: ≤30%)”. In the assay on NCI-H1299 cells, the “% inhibition rate NCI-H129 9” value was “+ (+: ≤30%)”. In addition, in the assay on Lovo cells (1 µM), the “% inhibition rate LoVo” value is “++ (++: more than 30% and less than 70%)”. Moreover, the “% inhibition rate G401” value with G401 cells is recorded as “+ (+: ≤30%)”. The “% inhibition rate MIA-Paca2” value in the assay with MIA-PaCa-2 cells is “+ (+: ≤30%)”.
For the molecule `CCN(C)c1ccc(-c2cc(C(=O)NCc3c(SC)cc(C)[nH]c3=O)c(C)c3c2OC(C)(C2CCN(CC(F)(F)F)CC2)O3)cn1` (single isomer, unassigned) [Compound 80, 7-(2-(ethyl(methyl)amino)pyridin-5-yl)-2,4-dimethyl-N-((6-methyl-4-(methylthio)-2-oxo-1,2-dihydropyridin-3-yl)methyl)-2-(1-(2,2,2-trifluoroethyl)piperidin-4-yl)benzo[d][1,3]dioxole-5-carboxamide], the “% inhibition rate SW-13” value with SW-13 cells (1 µM) is on record as “+ (+: ≤30%)”. The “% inhibition rate MKN -45” value with MKN-45 cells (1 µM) was “++ (++: more than 30% and less than 70%)”. Moreover, the “% inhibition rate NCI-H129 9” value with NCI-H1299 cells (1 µM) is on record as “+ (+: ≤30%)”. In the assay on Lovo cells, the “% inhibition rate LoVo” value is “+++ (+++: ≥70%)”. In the assay on G401 cells, the “% inhibition rate G401” value is listed as “+ (+: ≤30%)”. In addition, the “% inhibition rate MIA-Paca2” value with MIA-PaCa-2 cells is listed as “+ (+: ≤30%)”.
`CCN(C)c1ncc(-c2cc(C(=O)NCc3c(SC)cc(C)[nH]c3=O)c(C)c3c2OC(C)(C2CCN(CC(F)F)CC2)O3)cn1` (single isomer, unassigned) [Compound 82, 2-(1-(2,2-difluoroethyl)piperidin-4-yl)-7-(2-(ethyl(methyl)amino)pyrimidin-5-yl)-2,4-dimethyl-N-((6-methyl-4-(methylthio)-2-oxo-1,2-dihydropyridin-3-yl)methyl)benzo[d][1,3]dioxole-5-carboxamide]: the “% inhibition rate SW-13” value with SW-13 cells (1 µM) is reported as “+ (+: ≤30%)”. Also, the “% inhibition rate MKN -45” value in the assay with MKN-45 cells (1 µM) is listed as “+ (+: ≤30%)”. Also, the “% inhibition rate NCI-H129 9” value with NCI-H1299 cells is listed as “+ (+: ≤30%)”. The “% inhibition rate LoVo” value in the assay on Lovo cells was “+++ (+++: ≥70%)”. For the same molecule, the “% inhibition rate G401” value in the assay on G401 cells was “++ (++: more than 30% and less than 70%)”. Moreover, the “% inhibition rate MIA-Paca2” value with MIA-PaCa-2 cells was “+ (+: ≤30%)”.
For the molecule `CCN1CCC(C2(C)Oc3c(-c4cnc(N(C)CC)nc4)cc(C(=O)NCc4c(SC)cc(C)[nH]c4=O)c(C)c3O2)CC1` (single isomer, unassigned) [Compound 84, 7-(2-(ethyl(methyl)amino)pyrimidin-5-yl)-2-(1-ethylpiperidin-4-yl)-2,4-dimethyl-N-((6-methyl-4-(methylthio)-2-oxo-1,2-dihydropyridin-3-yl)methyl)benzo[d][1,3]dioxole-5-carboxamide], the “% inhibition rate SW-13” value in the assay on SW-13 cells (1 µM) is “+ (+: ≤30%)”. Further, the “% inhibition rate MKN -45” value in the assay on MKN-45 cells is on record as “+ (+: ≤30%)”. For the same molecule, the “% inhibition rate NCI-H129 9” value in the assay on NCI-H1299 cells is “+ (+: ≤30%)”. Also, the “% inhibition rate LoVo” value in the assay on Lovo cells (1 µM) is reported as “+ (+: ≤30%)”. For the same molecule, in the assay with G401 cells, the “% inhibition rate G401” value is reported as “+ (+: ≤30%)”. Moreover, the “% inhibition rate MIA-Paca2” value with MIA-PaCa-2 cells is “+ (+: ≤30%)”.
`CCN(C)c1ccc(-c2cc(C(=O)NCc3c(SC)cc(C)[nH]c3=O)c(C)c3c2OC(C)(C2CCN(CC(F)(F)F)CC2)O3)cn1` (single isomer, unassigned) [Compound 87, 7-(6-(ethyl(methyl)amino)pyridin-3-yl)-2,4-dimethyl-N-((6-methyl-4-(methylthio)-2-oxo-1,2-dihydropyridin-3-yl)methyl)-2-(1-(2,2,2-trifluoroethyl)piperidin-4-yl)benzo[d][1,3]dioxole-5-carboxamide]: the “% inhibition rate SW-13” value in the assay with SW-13 cells (1 µM) is on record as “+ (+: ≤30%)”. In addition, the “% inhibition rate MKN -45” value in the assay with MKN-45 cells (1 µM) is “+ (+: ≤30%)”. Moreover, the “% inhibition rate NCI-H129 9” value with NCI-H1299 cells (1 µM) is given as “+ (+: ≤30%)”. For the same molecule, in the assay with Lovo cells, the “% inhibition rate LoVo” value is on record as “+++ (+++: ≥70%)”. The “% inhibition rate G401” value in the assay with G401 cells is “+ (+: ≤30%)”. Besides, the “% inhibition rate MIA-Paca2” value with MIA-PaCa-2 cells is “+ (+: ≤30%)”.
For the molecule `CSc1cc(C)[nH]c(=O)c1CNC(=O)c1cc(-c2ccc(N3CC(C)CC(C)C3)nc2)c2c(c1C)OC(C)(C1CCN(CC(F)(F)F)CC1)O2` (stereo not drawn) [Compound 37, 7-(6-(3,5-dimethylpiperidin-1-yl)pyridin-3-yl)-2,4-dimethyl-N-((6-methyl-4-(methylthio)-2-oxo-1,2-dihydropyridin-3-yl)methyl)-2-(1-(2,2,2-trifluoroethyl)piperidin-4-yl)benzo[d][1,3]dioxole-5-carboxamide], the inhibition at 1 µM in the assay with SW-13 cells was at most 30%; in the assay with MKN-45 cells, at most 30%; in the assay with NCI-H1299 cells, 30 to 70%; with Lovo cells it was at least 70%; in the assay with G401 cells, at most 30%; in the assay on MIA-PaCa-2 cells, at most 30%.
For the molecule `CSc1cc(C)[nH]c(=O)c1CNC(=O)c1cc(-c2ccc(N3C[C@@H](C)O[C@@H](C)C3)nc2)c2c(c1C)OC(C)([C@H]1CC[C@H](N3CC(CC(F)(F)F)C3)CC1)O2` (stereo partly drawn) [Compound 102, 7-(6-((2S,6R)-2,6-dimethylmorpholino)pyridin-3-yl)-2,4-dimethyl-N-((6-methyl-4-(methylthio)-2-oxo-1,2-dihydropyridin-3-yl)methyl)-2-(trans-4-(3-(2,2,2-trifluoroethyl)azetidin-1-yl)cyclohexyl)benzo[d][1,3]dioxole-5-carboxamide], the inhibition at 1 µM in the assay with SW-13 cells is at least 70%; in the assay on MKN-45 cells, 30 to 70%; with NCI-H1299 cells, at most 30%; in the assay with Lovo cells, at least 70%; in the assay with G401 cells, 30 to 70%; in the assay on MIA-PaCa-2 cells it was at least 70%.

What is called inhibition is the share of the control response that was lost under treatment.

The values above are taken from EP4740948A1 (Dong Wha Pharm. Co., Ltd., priority 2023, dated 2025).
